The values that follow come from US6046231A, “Use of 4'-bromoflavone in a cancer chemopreventative composition and method” (The Board of Trustees of the University of Illinois, priority 1999, dated 2000).

In one experiment the test system is GST Ya (α class). Briefly: Western blot of GST Ya (α-type) expression in H4IIE cells. It counts as cell-based, rat. Conditions: for GST Ya (α) induction: H4IIE cells. How it is done:
Western Blot Analysis Glutathione S-transferase Expression. Cultured H4IIE rat hepatoma cells were treated with test agent with various concentrations or various time points. […] Cells were harvested using SDS lysis buffer (20 mM Tris-Cl, pH 6.8, containing 0.4% SDS (w/v), 4% glycerol, 0.24 M β-mercaptoethanol, and 0.5% bromphenol) and the lysates were boiled for 5 minutes, then stored at -20° C. An aliquot of lysate was used for protein determination using a bicichoninic acid protein assay kit with BSA as a standard. Equivalent amounts of protein were electrophoresed by SDS-PAGE on precast 12.5% Tris-glycine acrylamide gels (Novex, San Diego, Calif.), then transferred to polyvinylidene difluoride (PDVF) membranes. Nonspecific binding sites were blocked with 10% nonfat dry milk and blotting was performed with goat polyclonal antirat GSTYa (α class) IgG or antirat, GSTYb (μ class) IgG and analyzed by alkaline phosphatase-conjugated antigoat IgG secondary antibody (Oxford Biomed Research, Inc.) and quantified using an AP 20 Alkaline Phosphatase Kit detection system (Oxford Biomed Research, Inc.).
Induction of Expression of Glutathione S-transferase Ya (α-type) and Yb (μ-type) in Cell Cultures. […] To date, the superfamily of mammalian cytosolic GST isozymes has been defined genetically to consist of four classes; α, μ, π, and θ, which differ in tissue-specificexpression and distribution, as well as substrate specificity. […] Cultured H4IIE cells were treated either with 10 μM of 4'-BF (FIG. 7B) or sulforaphane for 0, 2, 4, 8, 16, 24, and 48 hours for a time-dependent study, or with 0.16, 0.8, 4, 10, 20, and 50 μM of 4'-BF (FIG. 7A) or sulforaphane for 24 hr for a dose-dependent study (FIG. 7A). The expressions of two major detoxification isoforms of GSTs (GST Ya: α-type, and GST Yb: μ-type) mediated by 4'-BF or sulforaphane were investigated in H4EII rat hepatoma cells using Western blotting technique.
On the technique in general: A western blot detects proteins with antibodies after separation by electrophoresis.

In a further experiment the test system is quinone reductase (QR). The experiment can be described thus: Effect on DMBA-induced QR activity in rat tissues. The note with it: liver and mammary gland. In kind it is in vivo, Sprague Dawley rat. On the procedure:
Effect of 4'-Bromoflavone on DMBA-induced QR Activity and Cytochrome P4501A1 Activity in Rat Tissues. At 43 days of age, Sprague Dawley rats were placed on various experimental diets (Table 1) for 1 week prior to administration of a single (i.g.) dose of DMBA (15 mg). Animals then were weighed and sacrificed by CO2 asphyxiation. Tissues (livers and mammary glands) were collected, rinsed with saline, frozen in liquid nitrogen, and stored at -80° C. until analysis. Individual tissues were homogenized in 0.05 M Tris-HCl buffer (pH 7.5) containing 0.25 M sucrose. Cytosolic and microsomal fractions were obtained through differential centrifugation. Dicumarol-sensitive QR activity was measured as described above using 50 μl of suitably diluted cytosol supernatants (in duplicate). Cytochrome P4501A1-mediated EROD activities were determined as described previously in R. Poul et al. Anal. Biochem., 107, pp. 265-275 (1980) and S. Sharma et al., Cancer Res., 54, pp. […] (1994), with slight modifications using suitably diluted microsomal protein. Enzyme activities were expressed as nmol/mg protein/min. Protein content was determined using Bradford reagent with BSA as standard, and data were presented as mean ±SE and analyzed using Student's t test (n=5).
Test animals were placed on various experimental diets for one week (Table 1) prior to a single i.g. dose of DMBA (15 mg). […]

For a further experiment, the system named is glutathione (GSH) level. Briefly: Glutathione (GSH) level in rat tissues after dietary administration. It counts as in vivo, Sprague Dawley rat. How it is done: Analysis of Quinone Reductase Activity and Glutathione Level in Rat Tissues. Spraque Dawley rats (n=10) at 43 days of age were placed on an appropriate experimental diet (5000, 2500, 1250, 625, and 312.5 mg/kg diet of 4'-BF) for three weeks. After three weeks, animals were sacrificed by carbon dioxide (CO2) asphyxiation. The livers, mammary glands, colons, stomachs, and lungs were collected, rinsed with saline, and frozen in liquid nitrogen and stored at -80° C. until enzyme activities were determined. Individual tissues (except mammary glands) were homogenized in 0.25 M sucrose and centrifuged at 15,000×g for 30 min at 4° C. The supernatant fluids were collected, 20% volume of 0.1 M CaCl2 in 0.25 M sucrose were added. After incubation at 0° C. for 30 min and further centrifuging at 15,000×g for 30 min at 4° C., a clear cytosolic fraction was used for enzyme assay. Mammary glands of each animal were pooled, homogenized in 1 ml ice-cold 0.1 M phosphate buffer pH 6.5 and centrifuged (15,000×g, 30 min at 4° C.), a clear supernatant suitable for enzyme assay resulted. Dicumarol-sensitive QR activity was measured in duplicate in 50 μl of suitable dilution of the tissue supernatant as described for the cellular system. GSH levels were assayed in duplicate using 96-well plates. […] The plates were shaken for 5-10 min and the extent of 2-nitro-5-thiobenzoic acid formation was monitored at 405 nm. A GSH standard curve was used to calculate the GSH content. GSH levels were expressed as nmol/mg protein.
Induction of Quinone Reductase Activity and Glutathione Level in Rat Tissues. Based on the results in cell cultures, 4'-BF was further evaluated for its inducing potency in rat liver, mammary gland, colon, stomach, and lung. […] The concentration of 4'-BF for maximum induction of GSH was about 1250 to about 2500 mg/kg diet, but varied for different organ sites.

As to `O=c1cc(-c2ccc(Br)cc2)oc2ccccc12` [4'-Bromoflavone], the “maximum induction time, GST Ya” value in the experiment on GST Ya (α class) (10 μM, 0-48 h) was in the range of 16 to 24 h. Besides, in the experiment on GST Ya (α class) (0.16-50 μM, 24 h), the “maximum induction concentration, GST Ya” value was in the range of 10 to 20 µM. In addition, the “GST Ya (α) induction” value with GST Ya (α class) is reported as “effectively induced”; in the experiment on GST Ya (α class) (listed as 4'-BF), “induced by 4'-BF in a time, dose-dependent manner”. Also, in the experiment with quinone reductase (QR) (1 week diet, DMBA 15 mg i.g.), the “QR activity vs control (basal diet)” value was “significantly induced”. The “QR activity vs DMBA alone” value in the experiment with quinone reductase (QR) (DMBA and 4'-BF or 4'-BF alone) is listed as “significant dose-dependent induction”. Besides, in the experiment on glutathione (GSH) level (colon, dietary), the “GSH level increase, colon” value is 1.40-1.72 fold. The “glutathione levels in rat tissues” value in the experiment with glutathione (GSH) level (liver, mammary gland, colon, stomach, lung, short-term dietary, P<0.0001) is listed as “significantly increased”. The “GSH level increase, liver” value in the experiment on glutathione (GSH) level (liver, dietary) is reported as 1.62-1.83 fold. The “GSH level increase, lung” value with glutathione (GSH) level (lung, dietary) is recorded as 1.09-1.42 fold. Also, in the experiment on glutathione (GSH) level (mammary gland, dietary), the “GSH level increase, mammary gland” value is recorded as 1.01-1.28 fold. The “GSH level increase, stomach” value with glutathione (GSH) level (stomach, dietary) is 1.16-1.17 fold.
